Measured values taken from ChEMBL document CHEMBL1201862, “PubChem BioAssay data set” (2004).
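These data come from cells grown in 96-well plates and exposed to compound for 48 hours at five concentrations. Abbreviation: GI50, concentration required for 50% inhibition of growth.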 The source made the active and inactive calls. No stated cut-off is given here; in the data, active = GI50 up to about 1.1 µM and inactive = higher.

Assays:
Assay in all cases: NCI tumour cell line growth inhibition, 48 h
[1] = tested on: COLO 205
[2] = tested on: NCI/ADR-RES
[3] = tested on: PC-3
[4] = tested on: 786-0
[5] = tested on: A549
[6] = tested on: RXF 393
[7] = tested on: BT-549
[8] = tested on: HCT-116
[9] = tested on: SK-OV-3
[10] = tested on: MDA-MB-435
[11] = tested on: HL-60
[12] = tested on: CAKI-1
[13] = tested on: UACC-257
[14] = tested on: EKVX
[15] = tested on: Hs-578T
[16] = tested on: ACHN
[17] = tested on: T47D
[18] = tested on: MDA-N
[19] = tested on: NCI-H226
[20] = tested on: U-251
[21] = tested on: HCC 2998
[22] = tested on: HOP-92
[23] = tested on: MDA-MB-231
[24] = tested on: K562
[25] = tested on: OVCAR-3
[26] = tested on: HT-29
[27] = tested on: OVCAR-8
[28] = tested on: A498
[29] = tested on: DU-145
[30] = tested on: SN12C
[31] = tested on: OVCAR-5
[32] = tested on: MOLT-4
[33] = tested on: TK-10
[34] = tested on: SF-295
[35] = tested on: SK-MEL-28
[36] = tested on: SK-MEL-2
[37] = tested on: CCRF-CEM
[38] = tested on: M14
[39] = tested on: SW-620
[40] = tested on: LOX IMVI
[41] = tested on: UACC-62
[42] = tested on: Malme-3M
[43] = tested on: SF-268
[44] = tested on: KM12
[45] = tested on: SF-539
[46] = tested on: UO-31
[47] = tested on: MCF7
[48] = tested on: IGROV-1
[49] = tested on: SNB-75
[50] = tested on: NCI-H522
[51] = tested on: HOP-62
[52] = tested on: OVCAR-4
[53] = tested on: SK-MEL-5
[54] = tested on: HCT-15
[55] = tested on: NCI-H23
[56] = tested on: SNB-19
[57] = tested on: RPMI-8226
[58] = tested on: NCI-H460

`CC12CCC3c4cc(Br)c(O)c(Br)c4CCC3C1CCC2O` (stereo unspecified) was tested, and the GI50 [1] was 25.2 µM (inactive), the GI50 [2] was 18.5 µM (inactive) and the GI50 [3] was 29.4 µM (inactive). The GI50 [4] was 18.7 µM (inactive), the GI50 [5] was 19.5 µM (inactive) and the GI50 [6] was 12.7 µM (inactive). The GI50 [7] was 16 µM (inactive), the GI50 [8] was 19.1 µM (inactive) and the GI50 [9] was 23.5 µM (inactive). The GI50 [10] was 4.23 µM (inactive), the GI50 [11] was 14.8 µM (inactive) and the GI50 [12] was 15.6 µM (inactive). For the same compound, the GI50 [13] was 17.8 µM (inactive), the GI50 [14] was 15.2 µM (inactive) and the GI50 [15] was 17.9 µM (inactive). The GI50 [16] was 22.5 µM (inactive), the GI50 [17] was 26.2 µM (inactive) and the GI50 [18] was 3.98 µM (inactive). The GI50 [19] was 16.7 µM (inactive), the GI50 [20] was 15 µM (inactive) and the GI50 [21] was 12.7 µM (inactive). For the same compound, the GI50 [22] was > 10 µM (inactive), the GI50 [23] was 13.3 µM (inactive) and the GI50 [24] was 6.18 µM (inactive). The GI50 [25] was 18.9 µM (inactive), the GI50 [26] was 15.4 µM (inactive) and the GI50 [27] was 14 µM (inactive). The GI50 [28] was 18.7 µM (inactive), the GI50 [29] was 34.9 µM (inactive) and the GI50 [30] was 19 µM (inactive). For the same compound, the GI50 [31] was 25.7 µM (inactive), the GI50 [32] was 17.7 µM (inactive) and the GI50 [33] was 19.8 µM (inactive). The GI50 [34] was 16.3 µM (inactive), the GI50 [35] was 17.9 µM (inactive) and the GI50 [36] was 19.1 µM (inactive). The GI50 [37] was 24.3 µM (inactive), the GI50 [38] was 32.7 µM (inactive) and the GI50 [39] was 14.2 µM (inactive). The GI50 [40] was 18.1 µM (inactive), the GI50 [41] was 14 µM (inactive) and the GI50 [42] was 14.3 µM (inactive). The GI50 [43] was 19.8 µM (inactive), the GI50 [44] was 12.9 µM (inactive) and the GI50 [45] was 18.5 µM (inactive). For the same compound, the GI50 [46] was 15.8 µM (inactive), the GI50 [47] was 27.2 µM (inactive) and the GI50 [48] was 15.8 µM (inactive). For the same compound, the GI50 [49] was 16.3 µM (inactive).

With `COc1cccc(N2C(=O)C3c4[nH]c5ccccc5c4C4c5ccccc5CCC4C3C2=O)c1` (stereo unspecified) the GI50 [50] was > 10 µM (inactive), the GI50 [1] was > 7.87 µM (inactive) and the GI50 [2] was 4.76 µM (inactive). The GI50 [3] was > 6.7 µM (inactive), the GI50 [4] was 2.9 µM (inactive) and the GI50 [5] was 6.12 µM (inactive). For the same compound, the GI50 [6] was > 6.62 µM (inactive), the GI50 [51] was 2.4 µM (inactive) and the GI50 [7] was 4.91 µM (inactive). For the same compound, the GI50 [52] was 2.75 µM (inactive), the GI50 [8] was 4.34 µM (inactive) and the GI50 [9] was > 4.86 µM (inactive). For the same compound, the GI50 [10] was > 7.5 µM (inactive), the GI50 [11] was > 10 µM (inactive) and the GI50 [12] was > 10 µM (inactive). The GI50 [53] was > 8.81 µM (inactive), the GI50 [14] was > 9.31 µM (inactive) and the GI50 [15] was 3 µM (inactive). For the same compound, the GI50 [16] was > 10 µM (inactive), the GI50 [17] was > 10 µM (inactive) and the GI50 [18] was > 8.28 µM (inactive). For the same compound, the GI50 [19] was > 4.37 µM (inactive), the GI50 [54] was > 10 µM and the GI50 [20] was 3.82 µM (inactive). The GI50 [21] was > 10 µM (inactive), the GI50 [22] was 6.15 µM (inactive) and the GI50 [23] was 5.06 µM (inactive). For the same compound, the GI50 [55] was > 10 µM (inactive), the GI50 [24] was > 10 µM (inactive) and the GI50 [25] was 5.5 µM (inactive). For the same compound, the GI50 [26] was 9.93 µM (inactive), the GI50 [27] was 2.34 µM (inactive) and the GI50 [56] was 3.31 µM (inactive). For the same compound, the GI50 [57] was > 10 µM (inactive), the GI50 [28] was 2.77 µM (inactive) and the GI50 [29] was > 10 µM (inactive). For the same compound, the GI50 [30] was > 6.03 µM (inactive), the GI50 [31] was > 10 µM (inactive) and the GI50 [32] was > 10 µM (inactive). For the same compound, the GI50 [33] was > 10 µM (inactive), the GI50 [34] was > 10 µM (inactive) and the GI50 [35] was > 9.55 µM (inactive). The GI50 [36] was > 10 µM (inactive), the GI50 [37] was > 10 µM (inactive) and the GI50 [58] was 4.82 µM (inactive). The GI50 [38] was 4.92 µM (inactive), the GI50 [39] was > 9.14 µM (inactive) and the GI50 [40] was > 10 µM (inactive). The GI50 [41] was > 10 µM (inactive), the GI50 [42] was 3.75 µM (inactive) and the GI50 [43] was 4.16 µM (inactive). The GI50 [44] was > 10 µM (inactive), the GI50 [45] was 2.5 µM (inactive) and the GI50 [46] was 4.27 µM (inactive). For the same compound, the GI50 [47] was > 10 µM (inactive), the GI50 [48] was > 7.98 µM (inactive) and the GI50 [49] was 2.7 µM (inactive).
